Measured values taken from US10266537B2, “3-acetylenyl-pyrazole-pyrimidine derivative, and preparation method therefor and uses thereof” (Si Chuan University, priority 2015, dated 2019).
pIC50: −log10 of the molar value. Read-outs that look alike come from different tables or passages of the source.

How the values were obtained:
FAK(h) = FAK(h) (Homo sapiens (Human), UniProt Q05397); test: Kinase inhibition assay (KinaseProfiler, 33P-ATP); type: biochemical; conditions: read-out: The percentage of the remaining active protein
Fer(h) = Fer(h) (Homo sapiens (Human), UniProt P16591); test: Kinase inhibition assay (KinaseProfiler, 33P-ATP); type: biochemical; conditions: read-out: The percentage of the remaining active protein
BT474 = test: Cell proliferation inhibition assay (MTT); type: cell-based; conditions: Homo sapiens, BT-474; BT474; MTT, 72 hours; read-out: Proliferation inhibitory activity IC50
Protocol: (§1) The cells were seeded in 96-well plates with 200 μL of cell suspension per well and incubated overnight in a cell culture medium with a cell concentration of 1 2×10^4 cells/mL. The next day, the supernatant was discarded (the suspension cell was centrifuged before it) and the cells were treated with gradient concentrations of the test compound, respectively. […] After 72 hours, add 20 μL of MTT reagent at a concentration of 5 mg/mL per well. After incubation for 2-4 h, the supernatant was discarded and 150 μL of DMSO was added to each well. […] Relative cell proliferation inhibition rate=([MUT]-[MUT])×100%/[MUT]. The experiment was repeated at least 3 times. Experimental data were expressed as mean, data statistics using t test, P<0.05 for the difference was statistically significant.

Fms(h) = Fms(h) (Homo sapiens (Human), UniProt P07333); test: Kinase inhibition assay (KinaseProfiler, 33P-ATP); type: biochemical; conditions: read-out: The percentage of the remaining active protein
Fyn = Fyn (Homo sapiens (Human), UniProt P06241); test: Kinase inhibition assay (KinaseProfiler, 33P-ATP); type: biochemical; conditions: for remaining activity at 10 µM: Fyn(h), read-out: The percentage of the remaining active protein; for pIC50: Fyn, ATP at Km
Sequence of Fyn (P06241 whole entry): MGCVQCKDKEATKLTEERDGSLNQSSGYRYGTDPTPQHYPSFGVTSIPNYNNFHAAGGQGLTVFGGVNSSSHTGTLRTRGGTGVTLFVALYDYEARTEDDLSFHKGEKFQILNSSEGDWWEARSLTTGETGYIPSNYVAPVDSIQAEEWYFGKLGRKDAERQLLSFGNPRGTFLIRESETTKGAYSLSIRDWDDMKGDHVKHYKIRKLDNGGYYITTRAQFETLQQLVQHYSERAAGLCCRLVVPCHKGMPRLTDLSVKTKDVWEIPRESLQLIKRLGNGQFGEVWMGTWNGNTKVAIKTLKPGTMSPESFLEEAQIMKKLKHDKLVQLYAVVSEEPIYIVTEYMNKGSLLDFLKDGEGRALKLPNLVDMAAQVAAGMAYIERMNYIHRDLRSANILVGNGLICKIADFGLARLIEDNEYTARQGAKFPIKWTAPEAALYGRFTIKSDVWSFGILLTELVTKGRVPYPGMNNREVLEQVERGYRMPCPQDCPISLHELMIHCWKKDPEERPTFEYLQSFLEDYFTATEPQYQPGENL

DDR1 = DDR1 (Homo sapiens (Human), UniProt Q08345); test: Kinase inhibition assay (KinaseProfiler, 33P-ATP); type: biochemical; conditions: for pIC50: DDR1, ATP at Km
Sequence of DDR1 (Q08345 19-913): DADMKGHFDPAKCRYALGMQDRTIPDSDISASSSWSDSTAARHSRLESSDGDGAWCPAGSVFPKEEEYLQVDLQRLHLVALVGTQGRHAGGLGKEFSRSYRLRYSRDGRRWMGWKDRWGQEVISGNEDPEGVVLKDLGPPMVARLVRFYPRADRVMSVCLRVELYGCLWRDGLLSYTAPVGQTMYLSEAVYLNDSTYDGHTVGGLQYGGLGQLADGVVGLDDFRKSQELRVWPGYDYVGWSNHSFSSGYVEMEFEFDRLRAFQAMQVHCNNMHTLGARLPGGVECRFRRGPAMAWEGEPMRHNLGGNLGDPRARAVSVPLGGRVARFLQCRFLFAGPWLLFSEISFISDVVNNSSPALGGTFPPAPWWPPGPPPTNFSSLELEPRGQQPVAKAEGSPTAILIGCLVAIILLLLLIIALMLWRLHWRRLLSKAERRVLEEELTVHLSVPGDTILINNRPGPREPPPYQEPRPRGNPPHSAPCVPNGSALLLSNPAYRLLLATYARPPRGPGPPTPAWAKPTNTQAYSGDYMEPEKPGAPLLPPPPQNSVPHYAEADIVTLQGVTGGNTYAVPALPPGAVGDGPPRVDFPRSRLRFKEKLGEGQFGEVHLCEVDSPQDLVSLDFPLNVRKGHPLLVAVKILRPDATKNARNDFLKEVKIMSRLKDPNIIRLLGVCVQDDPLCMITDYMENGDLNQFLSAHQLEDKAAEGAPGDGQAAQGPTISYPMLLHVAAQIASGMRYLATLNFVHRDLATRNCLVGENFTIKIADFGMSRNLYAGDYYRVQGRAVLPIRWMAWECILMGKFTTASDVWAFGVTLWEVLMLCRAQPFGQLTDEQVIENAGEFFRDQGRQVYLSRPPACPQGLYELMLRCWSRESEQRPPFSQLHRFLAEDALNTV

SW1990 = test: Cell proliferation inhibition assay (MTT); type: cell-based; conditions: Homo sapiens; SW1990; MTT, 72 hours; read-out: Proliferation inhibitory activity IC50
Protocol: as §1

JAK3(h) = JAK3(h) (Homo sapiens (Human), UniProt P52333); test: Kinase inhibition assay (KinaseProfiler, 33P-ATP); type: biochemical; conditions: read-out: The percentage of the remaining active protein
MDA-MB-231 = test: Cell proliferation inhibition assay (MTT); type: cell-based, human; conditions: Homo sapiens, MDA-MB-231, MTT, 72 hours
HCT116 = test: Cell proliferation inhibition assay (MTT); type: cell-based; conditions: Homo sapiens, HCT-116; HCT116; MTT, 72 hours; read-out: Proliferation inhibitory activity IC50
Protocol: as §1

Tie2 = Tie2 (Homo sapiens (Human), UniProt Q02763); test: Kinase inhibition assay (KinaseProfiler, 33P-ATP); type: biochemical; conditions: Tie2 (h), read-out: The percentage of the remaining active protein
PAK1(h) = PAK1(h) (Homo sapiens (Human), UniProt Q13153); test: Kinase inhibition assay (KinaseProfiler, 33P-ATP); type: biochemical; conditions: read-out: The percentage of the remaining active protein
EphA2 = EphA2 (Homo sapiens (Human), UniProt P29317); test: Kinase inhibition assay (KinaseProfiler, 33P-ATP)
Btk = Btk (Homo sapiens (Human), UniProt Q06187); test: Kinase inhibition assay (KinaseProfiler, 33P-ATP); type: biochemical; conditions: for remaining activity at 10 µM: BTK(h), read-out: The percentage of the remaining active protein
Sequence of Btk (Q06187 whole entry): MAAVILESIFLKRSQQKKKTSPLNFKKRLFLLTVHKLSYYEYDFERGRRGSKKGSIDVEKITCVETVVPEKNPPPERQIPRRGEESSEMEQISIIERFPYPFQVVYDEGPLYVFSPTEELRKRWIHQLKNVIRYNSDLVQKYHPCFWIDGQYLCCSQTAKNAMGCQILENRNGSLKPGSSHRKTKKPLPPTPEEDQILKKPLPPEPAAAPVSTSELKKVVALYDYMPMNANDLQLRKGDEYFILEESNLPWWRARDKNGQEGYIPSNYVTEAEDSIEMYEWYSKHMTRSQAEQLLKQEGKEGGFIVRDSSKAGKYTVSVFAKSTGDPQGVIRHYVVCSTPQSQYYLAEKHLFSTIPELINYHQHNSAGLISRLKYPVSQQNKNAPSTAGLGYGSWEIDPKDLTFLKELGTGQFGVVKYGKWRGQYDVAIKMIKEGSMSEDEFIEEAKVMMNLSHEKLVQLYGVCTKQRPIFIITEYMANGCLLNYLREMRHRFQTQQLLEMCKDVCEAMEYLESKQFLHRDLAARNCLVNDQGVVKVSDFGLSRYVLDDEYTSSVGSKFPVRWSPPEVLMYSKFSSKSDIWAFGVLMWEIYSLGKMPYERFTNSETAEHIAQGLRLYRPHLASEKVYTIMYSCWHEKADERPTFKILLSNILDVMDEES

IKKα = IKKα (Homo sapiens (Human), UniProt O15111); test: Kinase inhibition assay (KinaseProfiler, 33P-ATP); type: biochemical; conditions: IKKα(h), read-out: The percentage of the remaining active protein
Met(h) = Met(h) (Homo sapiens (Human), UniProt P08581); test: Kinase inhibition assay (KinaseProfiler, 33P-ATP); type: biochemical; conditions: read-out: The percentage of the remaining active protein
DDR2 = DDR2 (Homo sapiens (Human), UniProt Q16832); test: Kinase inhibition assay (KinaseProfiler, 33P-ATP); type: biochemical; conditions: for pIC50: DDR2, ATP at Km
Sequence of DDR2 (Q16832 22-855): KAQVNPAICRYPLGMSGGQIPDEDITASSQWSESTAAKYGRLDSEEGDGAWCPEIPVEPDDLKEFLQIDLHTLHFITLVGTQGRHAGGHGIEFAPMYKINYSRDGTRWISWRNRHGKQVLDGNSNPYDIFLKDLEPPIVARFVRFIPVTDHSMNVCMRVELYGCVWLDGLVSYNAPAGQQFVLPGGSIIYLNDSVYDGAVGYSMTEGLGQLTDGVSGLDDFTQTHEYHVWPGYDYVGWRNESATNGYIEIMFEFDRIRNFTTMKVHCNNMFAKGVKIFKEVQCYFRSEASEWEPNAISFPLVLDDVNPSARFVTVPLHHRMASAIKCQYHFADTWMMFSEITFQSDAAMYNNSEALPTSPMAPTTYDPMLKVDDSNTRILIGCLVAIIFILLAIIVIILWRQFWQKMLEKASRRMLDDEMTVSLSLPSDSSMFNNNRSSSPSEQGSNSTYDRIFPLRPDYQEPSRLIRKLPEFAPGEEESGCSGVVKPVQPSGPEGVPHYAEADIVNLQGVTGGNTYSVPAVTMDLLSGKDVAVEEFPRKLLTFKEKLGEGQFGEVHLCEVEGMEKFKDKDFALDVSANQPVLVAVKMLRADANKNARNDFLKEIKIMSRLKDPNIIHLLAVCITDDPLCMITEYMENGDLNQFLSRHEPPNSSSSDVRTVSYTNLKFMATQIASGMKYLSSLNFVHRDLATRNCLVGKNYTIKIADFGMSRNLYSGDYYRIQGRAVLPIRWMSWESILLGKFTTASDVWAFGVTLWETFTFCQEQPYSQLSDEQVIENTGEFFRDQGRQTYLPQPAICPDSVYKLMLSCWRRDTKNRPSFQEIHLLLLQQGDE

EphA8(h) = EphA8(h) (Homo sapiens (Human), UniProt P29322); test: Kinase inhibition assay (KinaseProfiler, 33P-ATP); type: biochemical; conditions: read-out: The percentage of the remaining active protein
Sequence of EphA8(h) (P29322 28-1005): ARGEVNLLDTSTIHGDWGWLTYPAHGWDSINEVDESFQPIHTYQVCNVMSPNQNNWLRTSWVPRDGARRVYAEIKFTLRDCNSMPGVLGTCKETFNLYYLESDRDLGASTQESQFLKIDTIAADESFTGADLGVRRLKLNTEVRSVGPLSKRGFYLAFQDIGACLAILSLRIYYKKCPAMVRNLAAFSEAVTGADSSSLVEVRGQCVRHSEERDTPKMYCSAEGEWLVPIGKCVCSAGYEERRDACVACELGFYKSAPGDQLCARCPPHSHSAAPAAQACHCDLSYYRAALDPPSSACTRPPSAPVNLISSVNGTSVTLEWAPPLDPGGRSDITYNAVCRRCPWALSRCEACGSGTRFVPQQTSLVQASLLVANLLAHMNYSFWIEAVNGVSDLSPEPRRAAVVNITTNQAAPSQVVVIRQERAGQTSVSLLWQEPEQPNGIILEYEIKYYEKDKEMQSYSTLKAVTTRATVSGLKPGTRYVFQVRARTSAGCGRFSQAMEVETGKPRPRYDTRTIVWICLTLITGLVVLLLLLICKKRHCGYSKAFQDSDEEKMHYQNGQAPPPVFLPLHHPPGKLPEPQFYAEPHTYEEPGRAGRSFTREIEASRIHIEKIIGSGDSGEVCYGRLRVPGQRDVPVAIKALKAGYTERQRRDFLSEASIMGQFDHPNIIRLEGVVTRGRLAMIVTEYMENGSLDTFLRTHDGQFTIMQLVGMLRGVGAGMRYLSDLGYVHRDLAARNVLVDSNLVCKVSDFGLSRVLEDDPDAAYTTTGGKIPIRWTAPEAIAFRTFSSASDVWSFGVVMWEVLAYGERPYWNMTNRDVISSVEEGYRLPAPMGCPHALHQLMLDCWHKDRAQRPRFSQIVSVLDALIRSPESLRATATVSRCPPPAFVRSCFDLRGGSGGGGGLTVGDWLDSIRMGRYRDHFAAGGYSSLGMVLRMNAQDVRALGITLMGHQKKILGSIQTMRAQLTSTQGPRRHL

Tec(h) activated = Tec(h) activated (Homo sapiens (Human), UniProt P42680); test: Kinase inhibition assay (KinaseProfiler, 33P-ATP); type: biochemical; conditions: read-out: The percentage of the remaining active protein
PKBβ(h) = PKBβ(h) (Homo sapiens (Human), UniProt P31751); test: Kinase inhibition assay (KinaseProfiler, 33P-ATP); type: biochemical; conditions: read-out: The percentage of the remaining active protein
GSK3β(h) = GSK3β(h) (Homo sapiens (Human), UniProt P49841); test: Kinase inhibition assay (KinaseProfiler, 33P-ATP); type: biochemical; conditions: read-out: The percentage of the remaining active protein
Sequence of GSK3β(h) (P49841 whole entry): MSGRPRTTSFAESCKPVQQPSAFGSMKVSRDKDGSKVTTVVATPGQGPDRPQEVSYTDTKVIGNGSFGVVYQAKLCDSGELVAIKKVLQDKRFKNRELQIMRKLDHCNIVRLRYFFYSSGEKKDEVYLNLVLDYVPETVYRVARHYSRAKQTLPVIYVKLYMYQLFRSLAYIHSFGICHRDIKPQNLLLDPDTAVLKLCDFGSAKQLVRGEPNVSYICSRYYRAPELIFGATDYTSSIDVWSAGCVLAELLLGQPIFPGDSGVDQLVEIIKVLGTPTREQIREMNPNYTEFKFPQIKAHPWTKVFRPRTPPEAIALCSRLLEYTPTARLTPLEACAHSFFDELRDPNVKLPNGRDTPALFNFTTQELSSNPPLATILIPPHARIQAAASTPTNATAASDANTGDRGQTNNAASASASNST

Itk(h) = Itk(h) (Homo sapiens (Human), UniProt Q08881); test: Kinase inhibition assay (KinaseProfiler, 33P-ATP); type: biochemical; conditions: read-out: The percentage of the remaining active protein
Axl = Axl (Homo sapiens (Human), UniProt P30530); test: Kinase inhibition assay (KinaseProfiler, 33P-ATP); type: biochemical; conditions: Axl(h), read-out: The percentage of the remaining active protein
Miapaca-2 = test: Cell proliferation inhibition assay (MTT); type: cell-based; conditions: Homo sapiens, MIA PaCa-2; Miapaca-2; MTT, 72 hours; read-out: Proliferation inhibitory activity IC50
Protocol: as §1

B-Raf(V600E) = B-Raf(V600E) (Homo sapiens (Human), UniProt P15056, V600E); test: Kinase inhibition assay (KinaseProfiler, 33P-ATP); conditions: ATP at Km
PKCα(h) = PKCα(h) (Homo sapiens (Human), UniProt P17252); test: Kinase inhibition assay (KinaseProfiler, 33P-ATP); type: biochemical; conditions: read-out: The percentage of the remaining active protein
Blk = Blk (Homo sapiens (Human), UniProt P51451); test: Kinase inhibition assay (KinaseProfiler, 33P-ATP); type: biochemical; conditions: for remaining activity at 10 µM: Blk(h), read-out: The percentage of the remaining active protein
Sequence of Blk (P51451 whole entry): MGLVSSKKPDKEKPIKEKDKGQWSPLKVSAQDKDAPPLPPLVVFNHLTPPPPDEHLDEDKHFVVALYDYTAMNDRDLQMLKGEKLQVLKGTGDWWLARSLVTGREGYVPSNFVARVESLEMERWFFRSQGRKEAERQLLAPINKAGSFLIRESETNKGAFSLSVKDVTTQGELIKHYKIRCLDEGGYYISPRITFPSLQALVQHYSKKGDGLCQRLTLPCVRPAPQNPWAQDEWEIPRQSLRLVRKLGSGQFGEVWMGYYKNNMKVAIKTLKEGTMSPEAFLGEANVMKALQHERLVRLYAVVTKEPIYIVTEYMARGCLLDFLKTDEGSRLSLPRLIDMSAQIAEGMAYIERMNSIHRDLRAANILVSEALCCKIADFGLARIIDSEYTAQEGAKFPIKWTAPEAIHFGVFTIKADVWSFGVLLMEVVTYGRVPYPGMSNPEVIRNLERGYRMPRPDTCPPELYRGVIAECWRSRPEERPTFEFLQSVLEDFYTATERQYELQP

ARK5(h) = ARK5(h) (Homo sapiens (Human), UniProt O60285); test: Kinase inhibition assay (KinaseProfiler, 33P-ATP); type: biochemical; conditions: read-out: The percentage of the remaining active protein
A375 = test: Cell proliferation inhibition assay (MTT); type: cell-based; conditions: Homo sapiens, A-375; A375; MTT, 72 hours; read-out: Proliferation inhibitory activity IC50
Protocol: as §1

PI3 Kinase a(h) = PI3 Kinase a(h) (Homo sapiens (Human), UniProt P42336); test: Kinase inhibition assay (KinaseProfiler, 33P-ATP); type: biochemical; conditions: read-out: The percentage of the remaining active protein
JAK2 = JAK2 (Homo sapiens (Human), UniProt O60674); test: Kinase inhibition assay (KinaseProfiler, 33P-ATP); type: biochemical; conditions: JAK2(h); 10 μM; read-out: The percentage of the remaining active protein
Abl = Abl (Homo sapiens (Human), UniProt P00519); test: Kinase inhibition assay (KinaseProfiler, 33P-ATP); type: biochemical; conditions: Abl(h); 10 μM; read-out: The percentage of the remaining active protein
[1] = read-out: Proliferation inhibitory activity IC50
[2] = read-out: Proliferative inhibitory activity MDA-MB-231 (IC50 class)

**Q.** Cc1ccc(NC(=O)c2cccc(C(F)(F)F)c2)cc1C#Cc1nn(C2CCN(C)CC2)c2ncnc(N)c12 [Compound 31] was tested. Which remaining activity at 10 µM (FAK(h); compound at 10 μM) did it give?
**A.** 26%

**Q.** And the remaining activity at 10 µM (Fer(h); compound at 10 μM)?
**A.** 92%

**Q.** And the pIC50 (BT474)?
**A.** < 5.00

**Q.** And the remaining activity at 10 µM (Fms(h); compound at 10 μM)?
**A.** 1%

**Q.** What about the remaining activity at 10 µM (Fyn; compound at 10 μM) of the same compound?
**A.** -1%

**Q.** What about the pIC50 (Fyn) of the same compound?
**A.** 8.52

**Q.** What about the pIC50 (DDR1) of the same compound?
**A.** 8.40

**Q.** What about the pIC50 (SW1990) of the same compound?
**A.** 6.69

**Q.** And the remaining activity at 10 µM (JAK3(h); compound at 10 μM)?
**A.** 29%

**Q.** And the pIC50 (MDA-MB-231; [1])?
**A.** 7.81

**Q.** And the pIC50 (MDA-MB-231; [2])?
**A.** > 7.00

**Q.** And the pIC50 (HCT116)?
**A.** 6.64

**Q.** And the remaining activity at 10 µM (Tie2; compound at 10 μM)?
**A.** 3%

**Q.** And the remaining activity at 10 µM (PAK1(h); compound at 10 μM)?
**A.** 36%

**Q.** And the pIC50 (EphA2)?
**A.** 7.74

**Q.** What about the remaining activity at 10 µM (Btk; compound at 10 μM) of the same compound?
**A.** -3%

**Q.** And the pIC50 (Btk; Btk, ATP at Km)?
**A.** 6.90

**Q.** What about the remaining activity at 10 µM (IKKα; compound at 10 μM) of the same compound?
**A.** 14%

**Q.** What about the remaining activity at 10 µM (Met(h); compound at 10 μM) of the same compound?
**A.** 102%

**Q.** What about the pIC50 (DDR2) of the same compound?
**A.** 7.13

**Q.** What about the remaining activity at 10 µM (EphA8(h); compound at 10 μM) of the same compound?
**A.** -4%

**Q.** What about the remaining activity at 10 µM (Tec(h) activated; compound at 10 μM) of the same compound?
**A.** 13%

**Q.** What about the remaining activity at 10 µM (PKBβ(h); compound at 10 μM) of the same compound?
**A.** 14%

**Q.** What about the remaining activity at 10 µM (GSK3β(h); compound at 10 μM) of the same compound?
**A.** 99%

**Q.** And the remaining activity at 10 µM (Itk(h); compound at 10 μM)?
**A.** 92%

**Q.** And the remaining activity at 10 µM (Axl; compound at 10 μM)?
**A.** 15%

**Q.** What about the pIC50 (Miapaca-2) of the same compound?
**A.** 7.39

**Q.** And the pIC50 (B-Raf(V600E))?
**A.** 8.30

**Q.** What about the remaining activity at 10 µM (PKCα(h); compound at 10 μM) of the same compound?
**A.** 92%

**Q.** And the remaining activity at 10 µM (Blk; compound at 10 μM)?
**A.** -1%

**Q.** And the pIC50 (Blk; Blk, ATP at Km)?
**A.** 7.92

**Q.** What about the remaining activity at 10 µM (ARK5(h); compound at 10 μM) of the same compound?
**A.** 115%

**Q.** What about the pIC50 (A375) of the same compound?
**A.** 7.58

**Q.** And the remaining activity at 10 µM (PI3 Kinase a(h); PI3 Kinase a(h), compound at 10 μM)?
**A.** 98%

**Q.** Which results are given for Cc1ccc(NC(=O)c2ccc(C)c(C(F)(F)F)c2)cc1C#Cc1nn([C@H]2CC[C@H](O)CC2)c2ncnc(N)c12 [Compound 93]?
**A.** remaining activity at 10 µM (FAK(h); 10 μM): 45%; remaining activity at 10 µM (Fer(h); 10 μM): 67%; pIC50 (BT474): < 5.00; remaining activity at 10 µM (Fms(h); 10 μM): 4%; remaining activity at 10 µM (Fyn; 10 μM): 0%; pIC50 (Fyn): 8.22; remaining activity at 10 µM (DDR1; DDR1(h), 10 μM, read-out: The percentage of the remaining active protein): -2%; pIC50 (DDR1): 7.82; remaining activity at 10 µM (JAK2): 64%; remaining activity at 10 µM (JAK3(h); 10 μM): 7%; pIC50 (MDA-MB-231; [1]): 7.52; pIC50 (MDA-MB-231; [2]): > 7.00; remaining activity at 10 µM (Tie2; 10 μM): 1%; remaining activity at 10 µM (PAK1(h); 10 μM): 87%; remaining activity at 10 µM (EphA2; read-out: The percentage of the remaining active protein): -3%; remaining activity at 10 µM (Btk; 10 μM): 10%; remaining activity at 10 µM (IKKα; 10 μM): 7%; remaining activity at 10 µM (Met(h); 10 μM): 133%; remaining activity at 10 µM (DDR2; DDR2(h), 10 μM, read-out: The percentage of the remaining active protein): 16%; pIC50 (DDR2): 7.19; remaining activity at 10 µM (EphA8(h); 10 μM): 2%; remaining activity at 10 µM (Tec(h) activated; 10 μM): 24%; remaining activity at 10 µM (PKBβ(h); 10 μM): 127%; remaining activity at 10 µM (GSK3β(h); 10 μM): 26%; remaining activity at 10 µM (Itk(h); 10 μM): 102%; remaining activity at 10 µM (Axl; 10 μM): 56%; pIC50 (Miapaca-2): > 6.22; remaining activity at 10 µM (Abl): -3%; remaining activity at 10 µM (PKCα(h); 10 μM): 110%; remaining activity at 10 µM (Blk; 10 μM): 0%; remaining activity at 10 µM (ARK5(h); 10 μM): 108%; pIC50 (A375): ~7.52; remaining activity at 10 µM (PI3 Kinase a(h); PI3 Kinase (p110a/p85a)(h), 10 μM): 79%
